Assay results as given in patent US10093675B2, “6,8-disubstituted-9-(heterocyclyl)purines, compositions containing these derivatives and their use in cosmetic and medicinal applications” (USTAV EXPERIMENTALNI BOTANIKY AV CR, V.V.I., priority 2014, dated 2018).

Legend:
[1] = system: excised wheat leaf tips (Triticum aestivum cv. Hereward); test: Senescence inhibition on winter wheat leaf segments (retention of chlorophyll); assay type: in vivo; details: 10^−4 mol/L; 96 hours in the dark; activity of kinetin set at 100%
In short: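 First-leaf tips from 7-day-old wheat seedlings stood with their bases in test solution for 96 h in the dark at 25° C. Chlorophyll was then extracted in hot 80% ethanol and read at 665 nm. Activity at each compound's best concentration is relative to 10^−4 M kinetin (100%), as means of five replicates.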

[2] = system: detached leaves of Triticum aestivum cv. Hereward; test: Membrane lipid peroxidation (MDA, TBA method) in detached wheat leaves during dark senescence; assay type: in vivo; details: four days in the dark, Control 18.9 (±2.2)
In short: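 Leaf tips from 7-day wheat seedlings were kept with compound or kinetin for four days in the dark. 100 mg tissue was extracted in 80% methanol and heated 30 min at 95 °C with 0.5% TBA/0.1% TCA. MDA came from A532 minus A600, using 155 mM^−1cm^−1.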

[3] = system: human diploid fibroblasts (HDF cells; HDF25, HDF45, HDF80); test: Inhibition of human cell aging: senescent cells by beta-galactosidase staining; assay type: cell-based; details: for SENESCENT CELLS (%) HDF25: human diploid fibroblasts passage 25, beta-galactosidase staining; for SENESCENT CELLS (%) HDF45: human diploid fibroblasts passage 45, beta-galactosidase staining; for SENESCENT CELLS (%) HDF80: human diploid fibroblasts passage 80, beta-galactosidase staining
In short: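 Cells of passages 25, 45 and 80 fixed 5 min at room temperature in 2% formaldehyde/0.2% glutaraldehyde in PBS, then incubated at 37° C with beta-galactosidase substrate. Senescent cells identified by blue staining.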

[4] = Radical scavenging activity determined by ORAC (Oxygen Radical Absorbance Capacity); assay type: biochemical; details: Mean ± SD (n = 3); net area under the curve relative to trolox, equimolar basis
Procedure: The ability of compounds to scavenge free radicals in vitro was determined by Oxygen Radical Absorbance Capacity (ORAC) method. Fluorescein (100 μL, […]) and 25 μL of compound solution were added into each working well in a 96-well microplate preincubated at 37° C. Thereafter, 25 μL of 250 mM AAPH was quickly added, microplate was shaken for 5 s and the fluorescence (Ex. 485 nm, Em. 510 nm) was read every 3 min over 90 min by using microplate reader Infinite 200 (TECAN, Switzerland). The net area under the curve was used to express antioxidant activity relative to trolox which was used as a standard.

Row | Structure (SMILES) | Activity (%) (s.d.), retention of chlorophyll [1] | MDA (nmol/g FW) [2] | SENESCENT CELLS (%) HDF25 [3] | SENESCENT CELLS (%) HDF45 [3] | SENESCENT CELLS (%) HDF80 [3] | ORAC (compound/trolox ratio) [4]
1 | C/C(=C\CNc1ncnc2c1nc(Br)n2C1CCCCO1)CO (stereo not shown) [Compound 24, (E)-8-Bromo-6-(4-hydroxy-3-methylbut-2-en-1-ylamino)-9-(tetrahydropyran-2-yl)-9H-purine] | 123 (±6) % | 11.4 (±0.9) nmol/g FW | 3% | 5% | 21% | 
2 | Fc1cccc(CNc2ncnc3c2nc(Br)n3C2CCCCO2)c1 (stereo not shown) [Compound 26] | 117 (±5) % |  | 2% | 5% | 19% | 
3 | Fc1ccc(CNc2ncnc3c2nc(Br)n3C2CCCCO2)cc1F (stereo not shown) [Compound 27] | 124 (±4) % |  | 2% | 4% | 21% | 
4 | C/C(=C\CNc1ncnc2c1nc(Cl)n2C1CCCO1)CO (stereo not shown) [Compound 64] | 123 (±4) % |  | 3% | 4% | 8% | 
5 | COc1cccc(CNc2ncnc3c2nc(Cl)n3C2CCCO2)c1 (stereo not shown) [Compound 69] | 115 (±4) % |  | 3% | 4% | 14% | 
6 | COc1nc2c(NCc3ccco3)ncnc2n1C1CCCCO1 (stereo not shown) [Compound 124, 6-Furfurylamino-8-methoxy-9-(tetrahydropyran-2-yl)-9H-purine] |  | 10.3 (±0.7) nmol/g FW |  |  |  | 30.1 ± 3.1
7 | CSc1nc2c(NCc3ccco3)ncnc2n1C1CCCCO1 (stereo not shown) [Compound 145, 6-Furfurylamino-8-methylsulfanyl-9-(tetrahydropyran-2-yl)-9H-purine] |  | 9.6 (±0.8) nmol/g FW |  |  |  | 1.3 ± 0.1
